Source: patent US11331289B2, “Antimicrobial composition” (priority 2017, dated 2022)
Converted amounts (≈) assume the structure as drawn. Read-outs that look alike come from different tables or passages of the source.

Assays:
MRSP 16125 = assay: Time-killing curve, inoculum 10^6 CFU/ml (MIC 0.5 μg/ml); format: cell-based, Staphylococcus pseudintermedius
Description: (§1) The objective of this study is to assess in vitro the time-killing curves of oxyclozanide against four strains of Methicillin-Resistant Staphylococcus from dogs.
(§2) Two Methicillin-Resistant Staphylococcus aureus (MRSA) and two Methicillin-Resistant Staphylococcus pseudintermedius (MRSP) isolated from the clinics have been tested.
(§3) The assessment of time-killing curves has been realized by a broth macrodilution method (Mueller-Hinton II Broth).
Oxyclozanide is diluted in (DMSO) into sterile tubes in order to obtain the following concentrations from 800 to 6.25 μg/ml. Those concentrations and stock standard solution are then diluted (1/10) in Mueller-Hinton II Broth in order to obtain the following concentrations from […] (See Table 2).
Each operation is performed under sterile conditions. Each working standard solution (10*the final active ingredient concentration) is distributed in tubes (1 ml, for a final volume of 10 ml after addition of 9 ml of inoculum). One tube without active ingredient is used as growth control (Concentration=0).
Bacterial isolates are sub-cultured from one cryobead on Columbia agar supplemented with 5% of blood. Pure cultures are incubated during 18-24 hours at 37° C. Three to five isolated colonies of similar appearance are selected from a previous culture and transferred into tubes containing 9 ml of Mueller-Hinton II Broth. The broth is incubated during 12-18 hours at 37° C. 0.5 to 1 ml of this broth is inoculated to another Mueller-Hinton II Broth 9 ml tube which is incubated during 3 to 4 hours at 37° C. to reach the exponential growth phase. The bacterial inoculum grown exponential phase is suspended to an optical density of McFarland standard scale 0.5 equivalent to a bacterial density of 10^8 CFU/ml and then adjusted to a concentration of about 5.10^5 CFU/ml as indicated by the guideline CLSI M26-A and to a second inoculum tested: 10^6 CFU/ml.
9 ml of bacterial inoculum grown to exponential phase is added to 1 ml of active ingredient (or Mueller Hinton II Broth for the growth control). Tubes are incubated at 35° C. during 24 hours.
At times 0, 2, 4, 6 and 24 hours, 100 μl of broth of each tube is sampled and diluted in microplates:
Each well is re-cultured by streaking 10 μl on Columbia agar supplemented with 5% of blood. Plates are incubated at 37° C. during 18-24 hours incubation. Thus, residual bacterial concentrations are determined (CFU/ml). Results are expressed in log10 values of CFU/ml over-time in broth. Due to the procedure used, the minimal bacterial concentration that can be assessed is 10^2 CFU/ml.

[1] = system: Methicillin-Resistant Staphylococcus aureus (MRSA) 16116, 16110; assay: Oxyclo MIC of MRSA strains; format: cell-based
Malassezia pachydermatis = assay: MIC, microdilution broth method; format: cell-based; details: for MIC: Malassezia pachydermatis, read-out: MIC
Description: Six clinical isolates from dog skin (n=5) and cats (n=1) which had been sent to EnvA (mycology laboratory of BioPôle Alfort) for mycological culture. The isolates, collected in March 2016, were identified as belonging to the species Malassezia pachydermatis. They were maintained by regular transplanting on medium of Sabouraud. Isolates are subcultured 2 to 3 days prior to testing sensitivity.
A stock solution of Oxyclozanide at 1600 μg/mL is prepared in DMSO. The stock solution is then diluted in DMSO to obtain a concentration range of 3.125 μg/ml to 800 μg/ml. A 1/50 dilution of this range and of the stock solution is then carried out in ultrapure water so as to obtain a concentration range of 0.0625 μg/ml to 32 μg/ml and containing 2% of DMSO. 50 μl of these solutions are deposited in wells of a microplate and then 50 μl of inoculum calibrated at 10^6 CFU/ml in Sabouraud/Tween 40 (2%) are added. A range of tested concentrations ranges from 0.0312 μg/mL to 16 μg/mL. The final concentration of DMSO in contact with the inoculum is 1%. The same dilution and seeding protocol was followed with a stock solution of amphotericin B at 1600 μg/ml. A “placebo” (or yeast growth control) column is systematically included in the plates. The plates are incubated at 37 ° C. The reading is done at 24 and 48 h. Several trials were conducted and protocol adjustments were required. In particular, the concentration of the inoculum had to be reduced for antifungal activity to be observed.

[2] = system: Methicillin-Resistant Staphylococcus aureus (MRSA); assay: Time-killing curves, conclusion over strains and inocula; format: cell-based; details: two inocula, two strains
Description: as §1, §2, §3

[3] = system: Methicillin-Resistant Staphylococcus pseudintermedius (MRSP); assay: as above; format: cell-based; details: two inocula, two strains
Description: as §1, §2, §3

MIC ([1]; MRSA 16110): 1 µg/mL | MIC ([1]; MRSA 16116): 0.5 µg/mL | MIC (Malassezia pachydermatis; Isolate 1, Assay 1, 10^6 CFU/ml): 8 µg/mL (≈ 19.9 µM) | MIC (Malassezia pachydermatis; Isolate 1, Assay 2, 10^6 CFU/ml): 4 µg/mL (≈ 9.96 µM) | MIC (Malassezia pachydermatis; Isolate 2, Assay 1, 10^6 CFU/ml): 8 µg/mL (≈ 19.9 µM) | MIC (Malassezia pachydermatis; Isolate 2, Assay 2, 10^6 CFU/ml): 8 µg/mL (≈ 19.9 µM) | MIC (Malassezia pachydermatis; Isolate 3, Assay 1, 10^6 CFU/ml): 8 µg/mL (≈ 19.9 µM) | MIC (Malassezia pachydermatis; Isolate 3, Assay 2, 10^6 CFU/ml): 16 µg/mL (≈ 39.9 µM) | MIC (Malassezia pachydermatis; Isolate 4, Assay 1, 10^6 CFU/ml): > 16 µg/mL | MIC (Malassezia pachydermatis; Isolate 4, Assay 2, 10^6 CFU/ml): > 16 µg/mL | MIC (Malassezia pachydermatis; Isolate 5, Assay 1, 10^6 CFU/ml): 8 µg/mL (≈ 19.9 µM) | MIC (Malassezia pachydermatis; Isolate 5, Assay 2, 10^6 CFU/ml): 8 µg/mL (≈ 19.9 µM) | MIC (Malassezia pachydermatis; Isolate 6, Assay 1, 10^6 CFU/ml): 8 µg/mL (≈ 19.9 µM) | MIC (Malassezia pachydermatis; Isolate 6, Assay 2, 10^6 CFU/ml): 16 µg/mL (≈ 39.9 µM)
Structure (SMILES): O=C(Nc1cc(Cl)cc(Cl)c1O)c1c(O)c(Cl)cc(Cl)c1Cl [Oxyclozanide]
Counting results (MRSP 16125; 1 MIC, 0 h): 1.000E+06 CFU/ml | Counting results (MRSP 16125; 1 MIC, 2 h): 1.000E+06 CFU/ml | Counting results (MRSP 16125; 1 MIC, 4 h): 1.500E+05 CFU/ml | Counting results (MRSP 16125; 1 MIC, 6 h): 1.000E+05 CFU/ml | Counting results (MRSP 16125; 1 MIC, 24 h): 4.100E+06 CFU/ml | Counting results (MRSP 16125; 2 MIC, 0 h): 1.000E+06 CFU/ml | Counting results (MRSP 16125; 2 MIC, 2 h): 1.600E+03 CFU/ml | Counting results (MRSP 16125; 2 MIC, 4 h): 1.000E+02 CFU/ml | Counting results (MRSP 16125; 2 MIC, 6 h): 1.000E+02 CFU/ml | Counting results (MRSP 16125; 2 MIC, 24 h): 1.000E+02 CFU/ml | Counting results (MRSP 16125; 4 MIC, 0 h): 1.000E+06 CFU/ml | Counting results (MRSP 16125; 4 MIC, 2 h): 5.000E+02 CFU/ml | Counting results (MRSP 16125; 4 MIC, 4 h): 1.000E+02 CFU/ml | Counting results (MRSP 16125; 4 MIC, 6 h): 1.000E+02 CFU/ml | Counting results (MRSP 16125; 4 MIC, 24 h): 1.000E+02 CFU/ml | Counting results (MRSP 16125; 8 MIC, 0 h): 1.000E+06 CFU/ml | Counting results (MRSP 16125; 8 MIC, 2 h): 1.000E+02 CFU/ml | Counting results (MRSP 16125; 8 MIC, 4 h): 1.000E+02 CFU/ml | Counting results (MRSP 16125; 8 MIC, 6 h): 1.000E+02 CFU/ml | Counting results (MRSP 16125; 8 MIC, 24 h): 1.000E+02 CFU/ml | Counting results (MRSP 16125; 16 MIC, 0 h): 1.000E+06 CFU/ml | Counting results (MRSP 16125; 16 MIC, 2 h): 1.000E+02 CFU/ml | Counting results (MRSP 16125; 16 MIC, 4 h): 1.000E+02 CFU/ml | Counting results (MRSP 16125; 16 MIC, 6 h): 1.000E+02 CFU/ml | Counting results (MRSP 16125; 16 MIC, 24 h): 1.000E+02 CFU/ml | Time to obtain bactericidal effect at 4 MIC (MRSP 16125; 16125/10^6 CFU/ml, >=3 log10 decrease in CFU): 2 h | Counting results (MRSP 16125; ¼ MIC, 0 h): 1.000E+06 CFU/ml | Counting results (MRSP 16125; ¼ MIC, 2 h): 1.500E+06 CFU/ml | Counting results (MRSP 16125; ¼ MIC, 4 h): 1.000E+07 CFU/ml | Counting results (MRSP 16125; ¼ MIC, 6 h): 1.000E+08 CFU/ml | Counting results (MRSP 16125; ¼ MIC, 24 h): 2.600E+09 CFU/ml | Counting results (MRSP 16125; ½ MIC, 0 h): 1.000E+06 CFU/ml | Counting results (MRSP 16125; ½ MIC, 2 h): 1.800E+06 CFU/ml | Counting results (MRSP 16125; ½ MIC, 4 h): 2.800E+06 CFU/ml | Counting results (MRSP 16125; ½ MIC, 6 h): 3.400E+06 CFU/ml | Counting results (MRSP 16125; ½ MIC, 24 h): 1.900E+08 CFU/ml | Activity with respect to Malassezia pachydermatis (Malassezia pachydermatis; isolate 3): no activity | Activity with respect to Malassezia pachydermatis (Malassezia pachydermatis; six clinical isolates): active | Concentrations with concentration-dependent bactericidal effect [2]: >= 2 MIC | Concentrations with concentration-dependent bactericidal effect [3]: >= 2 MIC
